According to PubChem BioAssay (NCI):
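Five compound concentrations were applied to cells in 96-well plates for 48 hours; endpoints were derived by simple linear interpolation of the resulting dose-response curve. GI50 = concentration required for 50% inhibition of growth. TGI denotes the concentration required for complete inhibition of growth.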

How the values were obtained:
Assay in all cases: NCI anticancer screen, dose series, 48 h
786-0 renal = system: 786-0 renal
A549 NSCLC = system: A549 NSCLC
ACHN renal = system: ACHN renal
BT-549 breast = system: BT-549 breast
CAKI-1 renal = system: CAKI-1 renal
CCRF-CEM leukemia = system: CCRF-CEM leukemia
COLO 205 colon = system: COLO 205 colon
DU-145 prostate = system: DU-145 prostate
EKVX NSCLC = system: EKVX NSCLC
HCC-2998 colon = system: HCC-2998 colon
HCT-116 colon = system: HCT-116 colon
HCT-15 colon = system: HCT-15 colon
HL-60(TB) leukemia = system: HL-60(TB) leukemia
HOP-62 NSCLC = system: HOP-62 NSCLC
HS 578T breast = system: HS 578T breast
HT29 colon = system: HT29 colon
IGROV1 ovarian = system: IGROV1 ovarian
K-562 leukemia = system: K-562 leukemia
KM12 colon = system: KM12 colon
LOX IMVI melanoma = system: LOX IMVI melanoma
M14 melanoma = system: M14 melanoma
MALME-3M melanoma = system: MALME-3M melanoma
MCF7 breast = system: MCF7 breast
MDA-MB-231 breast = system: MDA-MB-231 breast
MDA-MB-435 = system: MDA-MB-435
MOLT-4 leukemia = system: MOLT-4 leukemia
NCI-H226 lung = system: NCI-H226 lung
NCI-H460 lung = system: NCI-H460 lung
NCI-H522 lung = system: NCI-H522 lung
NCI/ADR-RES ovarian = system: NCI/ADR-RES ovarian
OVCAR-3 ovarian = system: OVCAR-3 ovarian
OVCAR-4 ovarian = system: OVCAR-4 ovarian
OVCAR-5 ovarian = system: OVCAR-5 ovarian
OVCAR-8 ovarian = system: OVCAR-8 ovarian
PC-3 prostate = system: PC-3 prostate
RPMI-8226 leukemia = system: RPMI-8226 leukemia
RXF 393 renal = system: RXF 393 renal
SF-268 CNS = system: SF-268 CNS
SF-295 CNS = system: SF-295 CNS
SF-539 CNS = system: SF-539 CNS
SK-MEL-2 melanoma = system: SK-MEL-2 melanoma
SK-MEL-28 melanoma = system: SK-MEL-28 melanoma
SK-MEL-5 melanoma = system: SK-MEL-5 melanoma
SK-OV-3 ovarian = system: SK-OV-3 ovarian
SN12C renal = system: SN12C renal
SNB-19 CNS = system: SNB-19 CNS
SNB-75 CNS = system: SNB-75 CNS
SR leukemia = system: SR leukemia
SW-620 colon = system: SW-620 colon
T-47D breast = system: T-47D breast
TK-10 renal = system: TK-10 renal
U251 CNS = system: U251 CNS
UACC-257 melanoma = system: UACC-257 melanoma
UACC-62 melanoma = system: UACC-62 melanoma
UO-31 renal = system: UO-31 renal

SMILES: CC(C)=Cc1cc(C)c2ccc(C)c3c2c1C(C)=C(O)C3=O
- GI50 (786-0 renal): 35.9 µM
- TGI (786-0 renal): > 100 µM
- GI50 (A549 NSCLC): 32 µM
- TGI (A549 NSCLC): > 100 µM
- GI50 (ACHN renal): > 100 µM
- TGI (ACHN renal): > 100 µM
- GI50 (BT-549 breast): 28.7 µM
- TGI (BT-549 breast): 89.5 µM
- GI50 (CAKI-1 renal): 23.8 µM
- TGI (CAKI-1 renal): 65.9 µM
- GI50 (CCRF-CEM leukemia): 4.45 µM
- TGI (CCRF-CEM leukemia): 19.7 µM
- GI50 (COLO 205 colon): 17.1 µM
- TGI (COLO 205 colon): 41.6 µM
- GI50 (DU-145 prostate): 36.3 µM
- TGI (DU-145 prostate): > 100 µM
- GI50 (EKVX NSCLC): 40.8 µM
- TGI (EKVX NSCLC): > 100 µM
- GI50 (HCC-2998 colon): 18 µM
- TGI (HCC-2998 colon): 37.4 µM
- GI50 (HCT-116 colon): 17.7 µM
- TGI (HCT-116 colon): 34.8 µM
- GI50 (HCT-15 colon): > 100 µM
- TGI (HCT-15 colon): > 100 µM
- GI50 (HL-60(TB) leukemia): 2.99 µM
- TGI (HL-60(TB) leukemia): 9.9 µM
- GI50 (HOP-62 NSCLC): 28.4 µM
- TGI (HOP-62 NSCLC): 61.7 µM
- GI50 (HS 578T breast): 25.7 µM
- TGI (HS 578T breast): 74.9 µM
- GI50 (HT29 colon): 28.7 µM
- TGI (HT29 colon): > 100 µM
- GI50 (IGROV1 ovarian): 21 µM
- TGI (IGROV1 ovarian): 71.6 µM
- GI50 (K-562 leukemia): 10.3 µM
- TGI (K-562 leukemia): 24.7 µM
- GI50 (KM12 colon): 29.8 µM
- TGI (KM12 colon): > 100 µM
- GI50 (LOX IMVI melanoma): 69.3 µM
- TGI (LOX IMVI melanoma): > 100 µM
- GI50 (M14 melanoma): 20.1 µM
- TGI (M14 melanoma): 45.7 µM
- GI50 (MALME-3M melanoma): 34.9 µM
- TGI (MALME-3M melanoma): > 100 µM
- GI50 (MCF7 breast): 53.5 µM
- TGI (MCF7 breast): > 100 µM
- GI50 (MDA-MB-231 breast): 20.4 µM
- TGI (MDA-MB-231 breast): 43.3 µM
- GI50 (MDA-MB-435): 27.5 µM
- TGI (MDA-MB-435): 73.7 µM
- GI50 (MOLT-4 leukemia): 1.19 µM
- TGI (MOLT-4 leukemia): 6.05 µM
- GI50 (NCI-H226 lung): 30.8 µM
- TGI (NCI-H226 lung): 81 µM
- GI50 (NCI-H460 lung): 51.2 µM
- TGI (NCI-H460 lung): > 100 µM
- GI50 (NCI-H522 lung): 19.8 µM
- TGI (NCI-H522 lung): 46.4 µM
- GI50 (NCI/ADR-RES ovarian): 15.7 µM
- TGI (NCI/ADR-RES ovarian): 51.3 µM
- GI50 (OVCAR-3 ovarian): 15.6 µM
- TGI (OVCAR-3 ovarian): 49.2 µM
- GI50 (OVCAR-4 ovarian): > 100 µM
- TGI (OVCAR-4 ovarian): > 100 µM
- GI50 (OVCAR-5 ovarian): 18.7 µM
- TGI (OVCAR-5 ovarian): 43.1 µM
- GI50 (OVCAR-8 ovarian): 36.6 µM
- TGI (OVCAR-8 ovarian): > 100 µM
- GI50 (PC-3 prostate): 12.6 µM
- TGI (PC-3 prostate): 37.8 µM
- GI50 (RPMI-8226 leukemia): 4.38 µM
- TGI (RPMI-8226 leukemia): 24.7 µM
- GI50 (RXF 393 renal): 41.9 µM
- TGI (RXF 393 renal): > 100 µM
- GI50 (SF-268 CNS): 0.0856 µM
- TGI (SF-268 CNS): > 100 µM
- GI50 (SF-295 CNS): 31.4 µM
- TGI (SF-295 CNS): 94.9 µM
- GI50 (SF-539 CNS): 32 µM
- TGI (SF-539 CNS): 79.5 µM
- GI50 (SK-MEL-2 melanoma): 25.7 µM
- TGI (SK-MEL-2 melanoma): 82.3 µM
- GI50 (SK-MEL-28 melanoma): 0.933 µM
- TGI (SK-MEL-28 melanoma): > 100 µM
- GI50 (SK-MEL-5 melanoma): 15.3 µM
- TGI (SK-MEL-5 melanoma): 28.9 µM
- GI50 (SK-OV-3 ovarian): 27.4 µM
- TGI (SK-OV-3 ovarian): 81.2 µM
- GI50 (SN12C renal): 24.3 µM
- TGI (SN12C renal): 61.6 µM
- GI50 (SNB-19 CNS): 23.1 µM
- TGI (SNB-19 CNS): 75.6 µM
- GI50 (SNB-75 CNS): > 100 µM
- TGI (SNB-75 CNS): > 100 µM
- GI50 (SR leukemia): 1.46 µM
- TGI (SR leukemia): 4.17 µM
- GI50 (SW-620 colon): 30 µM
- TGI (SW-620 colon): > 100 µM
- GI50 (T-47D breast): 16.9 µM
- TGI (T-47D breast): 52.8 µM
- GI50 (TK-10 renal): 44.6 µM
- TGI (TK-10 renal): > 100 µM
- GI50 (U251 CNS): 17.9 µM
- TGI (U251 CNS): 56.4 µM
- GI50 (UACC-257 melanoma): 39.5 µM
- TGI (UACC-257 melanoma): > 100 µM
- GI50 (UACC-62 melanoma): 19.8 µM
- TGI (UACC-62 melanoma): 46.7 µM
- GI50 (UO-31 renal): 23.5 µM
- TGI (UO-31 renal): > 100 µM
